Assay results from PubChem BioAssay (NCI).
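48-hour exposure; five concentrations; linearly interpolated endpoints. Abbreviation: GI50, concentration required for 50% inhibition of growth. At the TGI there is no net growth.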

Key:
Assay in all cases: inhibition of tumour cell growth, NCI panel, 48 h
786-0 renal = tested on: 786-0 renal
M14 melanoma = tested on: M14 melanoma
SF-295 CNS = tested on: SF-295 CNS
HS 578T breast = tested on: HS 578T breast
HCT-15 colon = tested on: HCT-15 colon
SK-MEL-5 melanoma = tested on: SK-MEL-5 melanoma
ACHN renal = tested on: ACHN renal
SN12C renal = tested on: SN12C renal
CCRF-CEM leukemia = tested on: CCRF-CEM leukemia
OVCAR-3 ovarian = tested on: OVCAR-3 ovarian

SMILES	GI50 (786-0 renal) [µM]	TGI (786-0 renal) [µM]	GI50 (M14 melanoma) [µM]	TGI (M14 melanoma) [µM]	GI50 (SF-295 CNS) [µM]	TGI (SF-295 CNS) [µM]	GI50 (HS 578T breast) [µM]	TGI (HS 578T breast) [µM]	GI50 (HCT-15 colon) [µM]	TGI (HCT-15 colon) [µM]	GI50 (SK-MEL-5 melanoma) [µM]	TGI (SK-MEL-5 melanoma) [µM]	GI50 (ACHN renal) [µM]	TGI (ACHN renal) [µM]	GI50 (SN12C renal) [µM]	TGI (SN12C renal) [µM]	GI50 (CCRF-CEM leukemia) [µM]	TGI (CCRF-CEM leukemia) [µM]	GI50 (OVCAR-3 ovarian) [µM]	TGI (OVCAR-3 ovarian) [µM]
Cc1ccc(NC2=CC(=O)C(=O)c3ccccc32)c(C)c1	8.44	20.8	1.78	3.26	1.68	3.37	2.35	7.99	2.74	17.1	1.44	2.79	3.71	13.9	2.81	9.17	6.23	> 100	1.49	4.47
CCOC(=O)n1c2ccccc2c(=O)n1CCO	–	> 100	–	> 100	–	> 100	–	> 100	–	> 100	–	> 100	–	> 100	–	> 100	–	> 100	–	> 100
O=S(=O)(NCCCNc1nccc(-c2c(-c3cccc(F)c3)nc3occn23)n1)c1cccc2ccccc12	4.94	> 100	5.75	> 100	5.5	> 100	8.36	> 100	3.31	> 100	3.67	43.6	3.64	> 100	3.44	> 100	5.48	> 100	13.5	> 100
Cc1ccc(O)cc1Nc1ccnc2cc(-c3ccccn3)ccc12	2.98	6.66	3.24	7.51	3.12	6.89	2.45	9.03	2.44	6.79	3.6	7.14	0.611	5.16	2.46	7.51	4.86	15	2.14	6.36
N#Cc1cccc(C2C3=C(COC3=O)N(CCO)c3cc4c(cc32)CCC4)c1 (centres undefined)	0.18	> 50	0.0832	0.293	0.0716	> 50	0.141	> 13.5	0.127	> 50	0.146	2.87	0.277	> 50	0.261	> 50	0.187	> 50	0.123	–
